Data: US20120220562A1, “Anti-Viral Compounds” (ABBOTT LABAORATORIES, priority 2011, published 2012)

system: HCV 1b-Con1 replicon; test: HCV 1b-Con1 replicon assay in the presence of 5% FBS; assay type: cell-based; conditions: Hepatitis C virus

`COC(=O)N[C@H](C(=O)N1CCC[C@H]1c1nc2cc([C@H]3CC[C@H](c4ccc5[nH]c([C@@H]6CCCN6C(=O)[C@@H](NC(=O)OC)C(C)C)nc5c4)N3c3cc(F)c(N4CCC(c5ccccc5)(c5ccccc5)CC4)c(F)c3)ccc2[nH]1)C(C)C` [Example 5.2, methyl {(2S)-1-[(2S)-2-{5-[(2R,5R)-1-[4-(4,4-diphenylpiperidin-1-yl)-3,5-difluorophenyl]-5-{2-[(2S)-1-{(2S)-2-[(methoxycarbonyl)amino]-3-methylbutanoyl}pyrrolidin-2-yl]-1H-benzimidazol-5-yl}pyrrolidin-2-yl]-1H-benzimidazol-2-yl}pyrrolidin-1-yl]-3-methyl-1-oxobutan-2-yl}carbamate] and `COC(=O)N[C@H](C(=O)N1CCC[C@H]1c1nc2ccc([C@H]3CC[C@H](c4ccc5nc([C@@H]6CCCN6C(=O)[C@@H](NC(=O)OC)C(C)C)[nH]c5c4)N3c3cc(F)c(N4CCC(F)(c5ccccc5)CC4)c(F)c3)cc2[nH]1)C(C)C` [Example 4.35, methyl {(2S)-1-[(2S)-2-{6-[(2R,5R)-1-[3,5-difluoro-4-(4-fluoro-4-phenylpiperidin-1-yl)phenyl]-5-{2-[(2S)-1-{(2S)-2-[(methoxycarbonyl)amino]-3-methylbutanoyl}pyrrolidin-2-yl]-1H-benzimidazol-6-yl}pyrrolidin-2-yl]-1H-benzimidazol-2-yl}pyrrolidin-1-yl]-3-methyl-1-oxobutan-2-yl}carbamate] cannot be ordered by EC50: < 0.1 nM for the first, < 0.1 nM for the second.

First: COC(=O)N[C@H](C(=O)N1CCC[C@H]1c1nc2cc([C@H]3CC[C@H](c4ccc5[nH]c([C@@H]6CCCN6C(=O)[C@@H](NC(=O)OC)C(C)C)nc5c4)N3c3ccnc(F)c3)ccc2[nH]1)C(C)C [Example 1.4, methyl {(2S)-1-[(2S)-2-{5-[(2R,5R)-1-(2-fluoropyridin-4-yl)-5-{2-[(2S)-1-{(2S)-2-[(methoxycarbonyl)amino]-3-methylbutanoyl}pyrrolidin-2-yl]-1H-benzimidazol-5-yl}pyrrolidin-2-yl]-1H-benzimidazol-2-yl}pyrrolidin-1-yl]-3-methyl-1-oxobutan-2-yl}carbamate]
Second: COC(=O)N[C@H](C(=O)N1CCC[C@H]1c1nc2cc([C@H]3CC[C@H](c4ccc5[nH]c([C@@H]6CCCN6C(=O)[C@@H](NC(=O)OC)C(C)C)nc5c4)N3c3ccc(OC(F)(F)F)c(Cl)c3)ccc2[nH]1)C(C)C [Example 3.2, methyl {(2S)-1-[(2S)-2-{5-[(2R,5R)-1-[3-chloro-4-(trifluoromethoxy)phenyl]-5-{2-[(2S)-1-{(2S)-2-[(methoxycarbonyl)amino]-3-methylbutanoyl}pyrrolidin-2-yl]-1H-benzimidazol-5-yl}pyrrolidin-2-yl]-1H-benzimidazol-2-yl}pyrrolidin-1-yl]-3-methyl-1-oxobutan-2-yl}carbamate]
The EC50 of the first is higher: 0.1 to 1 nM for the first, < 0.1 nM for the second. The second is the more potent here.

`COC(=O)N[C@H](C(=O)N1CCC[C@H]1c1nc2cc([C@H]3CC[C@H](c4ccc5[nH]c([C@@H]6CCCN6C(=O)[C@@H](NC(=O)OC)C(C)C)nc5c4)N3c3cc(F)c(N4CCC(F)(F)CC4)c(F)c3)ccc2[nH]1)C(C)C` [Example 1.5, methyl {(2S)-1-[(2S)-2-{5-[(2R,5R)-1-[4-(4,4-difluoropiperidin-1-yl)-3,5-difluorophenyl]-5-{2-[(2S)-1-{(2S)-2-[(methoxycarbonyl)amino]-3-methylbutanoyl}pyrrolidin-2-yl]-1H-benzimidazol-5-yl}pyrrolidin-2-yl]-1H-benzimidazol-2-yl}pyrrolidin-1-yl]-3-methyl-1-oxobutan-2-yl}carbamate] and `COC(=O)N[C@H](C(=O)N1CCC[C@H]1c1nc2cc([C@H]3CC[C@H](c4ccc5[nH]c([C@@H]6CCCN6C(=O)[C@@H](NC(=O)OC)C(C)C)nc5c4)N3c3cc(F)c(N4CCC(c5cccc([Si](C)(C)C)c5)CC4)c(F)c3)ccc2[nH]1)C(C)C` [Example 3.43, methyl {(2S)-1-[(2S)-2-{5-[(2R,5R)-1-(3,5-difluoro-4-{4-[3-(trimethylsilyl)phenyl]piperidin-1-yl}phenyl)-5-{2-[(2S)-1-{(2S)-2-[(methoxycarbonyl)amino]-3-methylbutanoyl}pyrrolidin-2-yl]-1H-benzimidazol-5-yl}pyrrolidin-2-yl]-1H-benzimidazol-2-yl}pyrrolidin-1-yl]-3-methyl-1-oxobutan-2-yl}carbamate] cannot be ordered by EC50: < 0.1 nM for the first, < 0.1 nM for the second.

`COC(=O)N[C@H](C(=O)N1CCC[C@H]1c1nc2cc([C@H]3CC[C@H](c4cc5nc([C@@H]6CCCN6C(=O)[C@@H](NC(=O)OC)C6CCOCC6)[nH]c5cc4F)N3c3cc(F)c(N4CCCCC4)c(F)c3)c(F)cc2[nH]1)C1CCOCC1` [Example 3.35, dimethyl ({(2R,5R)-1-[3,5-difluoro-4-(piperidin-1-yl)phenyl]pyrrolidine-2,5-diyl}bis {(6-fluoro-1H-benzimidazole-5,2-diyl)(2S)pyrrolidine-2,1-diyl[(1S)-2-oxo-1-(tetrahydro-2H-pyran-4-yl)ethane-2,1-diyl]})biscarbamate] and `COC(=O)N[C@H](C(=O)N1CCC[C@H]1c1nc2cc([C@H]3CC[C@H](c4cc5nc([C@@H]6CCCN6C(=O)[C@@H](NC(=O)OC)C(C)C)[nH]c5cc4F)N3c3cc(F)c(N4CCN(c5ncccn5)CC4)c(F)c3)c(F)cc2[nH]1)C(C)C` [Example 4.60, methyl {(2S)-1-[(2S)-2-{5-[(2R,5R)-1-{3,5-difluoro-4-[4-(pyrimidin-2-yl)piperazin-1-yl]phenyl}-5-{6-fluoro-2-[(2S)-1-{(2S)-2-[(methoxycarbonyl)amino]-3-methylbutanoyl}pyrrolidin-2-yl]-1H-benzimidazol-5-yl}pyrrolidin-2-yl]-6-fluoro-1H-benzimidazol-2-yl}pyrrolidin-1-yl]-3-methyl-1-oxobutan-2-yl}carbamate] cannot be ordered by EC50: < 0.1 nM for the first, < 0.1 nM for the second.

`COC(=O)N[C@H](C(=O)N1CCC[C@H]1c1nc2ccc([C@H]3CC[C@H](c4ccc5nc([C@@H]6CCCN6C(=O)[C@@H](NC(=O)OC)C(C)C)[nH]c5c4)N3c3cc(F)c(N4CCC(c5ccc([Si](C)(C)C)cc5)CC4)c(F)c3)cc2[nH]1)C(C)C` [Example 2.14, methyl {(2S)-1-[(2S)-2-{5-[(2R,5R)-1-(3,5-difluoro-4-{4-[4-(trimethylsilyl)phenyl]piperidin-1-yl}phenyl)-5-{2-[(2S)-1-{(2S)-2-[(methoxycarbonyl)amino]-3-methylbutanoyl}pyrrolidin-2-yl]-1H-benzimidazol-5-yl}pyrrolidin-2-yl]-1H-benzimidazol-2-yl}pyrrolidin-1-yl]-3-methyl-1-oxobutan-2-yl}carbamate] and `CCOC(=O)N[C@H](C(=O)N1CCC[C@H]1c1nc2cc([C@H]3CC[C@H](c4ccc5[nH]c([C@@H]6CCCN6C(=O)[C@@H](NC(=O)OCC)C(C)C)nc5c4)N3c3cc(F)c(N4CCC(c5ccccc5)CC4)c(F)c3)ccc2[nH]1)C(C)C` [Example 3.34, ethyl {(2S)-1-[(2S)-2-{5-[(2R,5R)-1-[3,5-difluoro-4-(4-phenylpiperidin-1-yl)phenyl]-5-{2-[(2S)-1-{(2S)-2-[(ethoxycarbonyl)amino]-3-methylbutanoyl}pyrrolidin-2-yl]-1H-benzimidazol-5-yl}pyrrolidin-2-yl]-1H-benzimidazol-2-yl}pyrrolidin-1-yl]-3-methyl-1-oxobutan-2-yl}carbamate] cannot be ordered by EC50: < 0.1 nM for the first, < 0.1 nM for the second.

`C=C1C[C@@H](c2nc3cc([C@H]4CC[C@H](c5ccc6[nH]c([C@@H]7CC(=C)CN7C(=O)[C@@H](NC(=O)OC)C(C)C)nc6c5)N4c4ccc(C(C)(C)C)cc4)ccc3[nH]2)N(C(=O)[C@@H](NC(=O)OC)C(C)C)C1` [Example 3.26, methyl {(2S)-1-[(2S)-2-{5-[(2R,5R)-1-(4-tert-butylphenyl)-5-{2-[(2S)-1-{(2S)-2-[(methoxycarbonyl)amino]-3-methylbutanoyl}-4-methylidenepyrrolidin-2-yl]-1H-benzimidazol-5-yl}pyrrolidin-2-yl]-1H-benzimidazol-2-yl}-4-methylidenepyrrolidin-1-yl]-3-methyl-1-oxobutan-2-yl}carbamate] and `COC(=O)NC(C(=O)N1CCC[C@H]1c1nc2cc([C@@H]3CC[C@@H](c4ccc5[nH]c([C@@H]6CCCN6C(=O)C(NC(=O)OC)=C(C)C)nc5c4)N3c3ccc(C(C)(C)C)cc3)ccc2[nH]1)=C(C)C` [Example 3.17, dimethyl {[(2S,5S)-1-(4-tert-butylphenyl)pyrrolidine-2,5-diyl]bis[1H-benzimidazole-5,2-diyl(2S)pyrrolidine-2,1-diyl(3-methyl-1-oxobut-2-ene-1,2-diyl)]}biscarbamate] cannot be ordered by EC50: < 0.1 nM for the first, < 0.1 nM for the second.

`COC(=O)N[C@H](C(=O)N1CCC[C@H]1C(=O)Nc1ccc(C2CC[C@@H](c3ccc(NC(=O)[C@@H]4CCCN4C(=O)[C@@H](NC(=O)OC)C(C)C)cc3)N2c2cc(F)c(N3CCC(c4ccccc4)CC3)c(F)c2)cc1)C(C)C` (stereo partly drawn) [Example 8, dimethyl ({(2S)-1-[3,5-difluoro-4-(4-phenylpiperidin-1-yl)phenyl]pyrrolidine-2,5-diyl}bis{4,1-phenylenecarbamoyl(2S)pyrrolidine-2,1-diyl[(2S)-3-methyl-1-oxobutane-1,2-diyl]})biscarbamate] and `COC(=O)N[C@H](C(=O)N1C[C@H](OC)C[C@H]1c1nc2cc([C@H]3CC[C@H](c4ccc5[nH]c([C@@H]6C[C@@H](OC)CN6C(=O)[C@@H](NC(=O)OC)C(C)C)nc5c4)N3c3cc(F)c(N4CCCCC4)c(F)c3)ccc2[nH]1)C(C)C` [Example 5.5, methyl {(2S)-1-[(2S,4R)-2-{5-[(2R,5R)-1-[3,5-difluoro-4-(piperidin-1-yl)phenyl]-5-{2-[(2S,4R)-4-methoxy-1-{(2S)-2-[(methoxycarbonyl)amino]-3-methylbutanoyl}pyrrolidin-2-yl]-1H-benzimidazol-5-yl}pyrrolidin-2-yl]-1H-benzimidazol-2-yl}-4-methoxypyrrolidin-1-yl]-3-methyl-1-oxobutan-2-yl}carbamate] cannot be ordered by EC50: < 0.1 nM for the first, < 0.1 nM for the second.

Work on `COC(=O)N[C@H](C(=O)N1CCC[C@H]1c1ncc(-c2cccc(C3(c4cccc(-c5cnc([C@@H]6CCCN6C(=O)[C@@H](NC(=O)OC)C(C)C)[nH]5)c4)CN(c4ccc(C(C)(C)C)cc4)C3)c2)[nH]1)C(C)C` [Example 12.1, methyl {(2S)-1-[(2S)-2-(5-{3-[1-(4-tert-butylphenyl)-3-(3-{2-[(2S)-1-{(2S)-2-[(methoxycarbonyl)amino]-3-methylbutanoyl}pyrrolidin-2-yl]-1H-imidazol-5-yl}phenyl)azetidin-3-yl]phenyl}-1H-imidazol-2-yl)pyrrolidin-1-yl]-3-methyl-1-oxobutan-2-yl}carbamate] yielded an EC50 of 1 to 10 nM.
